Numbers after ± are expanded uncertainties.
Columns and labels:
[1] = for speed of sound / mass density: 101.33 kPa, Liquid; for speed of sound: Linear variable-path acoustic interferometer; for mass density: Vibrating tube method; for surface tension liquid-gas: Drop volume
[2] = xn = mol fraction of the nth substance listed; details: for surface tension liquid-gas: 298.15 K, Drop volume; for speed of sound / mass density: 303.15 K, Liquid; for speed of sound: Linear variable-path acoustic interferometer; for mass density: Vibrating tube method

Cc1ccc(C)cc1 [1,4-dimethylbenzene]
[1]
Details | mass density [kg/m3] | speed of sound [m/s] | surface tension liquid-gas [mN/m]
288.15 K | 865.2 ± 0.23 | 1350.7 ± 2 | –
293.15 K | 860.9 ± 0.24 | 1329.6 ± 2 | –
298.15 K | 856.58 ± 0.24 | 1308.4 ± 2 | 27.43 ± 0.2
303.15 K | 852.21 ± 0.24 | 1287.4 ± 1.9 | –
308.15 K | 847.83 ± 0.24 | 1266.4 ± 1.9 | –

CCOC(=O)OCC [diethyl carbonate] + CCCCCCCCCC
[2]
Details | mass density [kg/m3] | speed of sound [m/s] | surface tension liquid-gas [mN/m]
x1 = 0.0495 | 729.09 ± 0.24 | 1207.8 ± 1.9 | –
x1 = 0.04972 | – | – | 22.98 ± 0.26
x1 = 0.09861 | 736.12 ± 0.24 | 1201.1 ± 1.9 | –
x1 = 0.09958 | – | – | 22.89 ± 0.26
x1 = 0.1979 | 751.5 ± 0.23 | 1188.8 ± 1.9 | –
x1 = 0.1989 | – | – | 22.86 ± 0.26
x1 = 0.2966 | – | – | 22.84 ± 0.26
x1 = 0.3012 | 769.28 ± 0.22 | 1177.8 ± 1.8 | –
x1 = 0.3959 | – | – | 22.89 ± 0.25
x1 = 0.3995 | 788 ± 0.21 | 1168.5 ± 1.8 | –
x1 = 0.504 | 810.31 ± 0.2 | 1160.2 ± 1.8 | –
x1 = 0.5144 | – | – | 22.97 ± 0.25
x1 = 0.5477 | 820.39 ± 0.2 | 1157.2 ± 1.8 | –
x1 = 0.5568 | – | – | 22.98 ± 0.25
x1 = 0.5996 | – | – | 23.04 ± 0.25
x1 = 0.6015 | 833.53 ± 0.19 | 1153.9 ± 1.8 | –
x1 = 0.699 | 859.54 ± 0.18 | 1149.6 ± 1.7 | –
x1 = 0.7 | – | – | 23.24 ± 0.25
x1 = 0.7887 | – | – | 23.58 ± 0.25
x1 = 0.799 | 889.41 ± 0.17 | 1147.7 ± 1.7 | –
x1 = 0.8986 | – | – | 24.27 ± 0.25
x1 = 0.9002 | 924.32 ± 0.17 | 1149.1 ± 1.7 | –
x1 = 0.95 | 943.19 ± 0.16 | 1151.4 ± 1.7 | –
x1 = 0.9516 | – | – | 24.76 ± 0.25

CCOC(=O)OCC [diethyl carbonate]
[1]
Details | mass density [kg/m3] | speed of sound [m/s] | surface tension liquid-gas [mN/m]
288.15 K | 980.4 ± 0.13 | 1218 ± 1.7 | –
293.15 K | 974.81 ± 0.13 | 1197.7 ± 1.7 | –
298.15 K | 969.19 ± 0.13 | 1176.9 ± 1.7 | 25.43 ± 0.25
303.15 K | 963.6 ± 0.13 | 1156.3 ± 1.7 | –
308.15 K | 957.92 ± 0.13 | 1135.8 ± 1.7 | –

CCCCCCCCCC [decane]
[1]
Details | mass density [kg/m3] | speed of sound [m/s] | surface tension liquid-gas [mN/m]
288.15 K | 733.62 ± 0.24 | 1274.4 ± 1.9 | –
293.15 K | 729.86 ± 0.24 | 1254.8 ± 1.9 | –
298.15 K | 726.09 ± 0.24 | 1234.7 ± 1.9 | 23.1 ± 0.18
303.15 K | 722.3 ± 0.25 | 1214.7 ± 1.9 | –
308.15 K | 718.51 ± 0.25 | 1194.9 ± 1.9 | –
